Patent US11261152B2, “Inhibitors of the N-terminal domain of the androgen receptor” (The Regents of the University of California, priority 2017, dated 2022)
Entries after “also recorded” stand apart in the source; their conditions may differ.

How the values were obtained:
[1] = test system: AR-null PCa cells (DU145, PC3); test: MTT / CellTiter GLO cell viability, AR-null prostate cancer cells; conditions: for MTT AR-Neg: Table 3 grade HIGH/MED/LOW, grades not defined; for growth of AR null prostate cancer cells / off target effects on AR-null prostate cancer cell lines compared to JN018: result in words
Description: (§3) The results are means of quadruplicate expts±s.d. Top panel: CellTiter GLO luminescent bioassay (arbitrary units on vertical axis). Bottom panel: classical MTT assay ([blue/yellow]=[viable/non-viable]).
(§4) Experiments were performed in quadruplicate; results are means+/−s.d.
AR null PC3 cells were exposed to the indicated compounds for 6 days; cell viability was measured by MTT assay. Results were normalized to that of vehicle control. Experiments were performed in quadruplicate; results are means+/−s.d.
For each compound and concentration in the figure, the bars represent relative cell viability of 22Rv1, LAPC4, and DU145, from left to right.
For each compound and concentration in the figure, the bars represent relative cell viability of CWR22 and PC3, from left to right.

[2] = test system: glucocorticoid response element (GRE) / glucocorticoid receptor; test: GRE reporter assay; assay type: cell-based; conditions: Table 3 grade HIGH/MED/LOW, grades not defined
Description: FIG. 11B. Effects of JN series compounds in reporter assays for glucocorticoid response element. Experiments were performed in triplicate and results are means+/−s.d.

[3] = molecular target: T1, AR transactivation domain (TAD) (Homo sapiens, UniProt P10275); test: AR-TAD fused to GAL4 DNA-binding domain reporter assay; assay type: cell-based; conditions: Table 3 grade HIGH/MED/LOW, grades not defined
T1 construct: expressed in transfected cells
T1 sequence (P10275 1-559 limits assumed): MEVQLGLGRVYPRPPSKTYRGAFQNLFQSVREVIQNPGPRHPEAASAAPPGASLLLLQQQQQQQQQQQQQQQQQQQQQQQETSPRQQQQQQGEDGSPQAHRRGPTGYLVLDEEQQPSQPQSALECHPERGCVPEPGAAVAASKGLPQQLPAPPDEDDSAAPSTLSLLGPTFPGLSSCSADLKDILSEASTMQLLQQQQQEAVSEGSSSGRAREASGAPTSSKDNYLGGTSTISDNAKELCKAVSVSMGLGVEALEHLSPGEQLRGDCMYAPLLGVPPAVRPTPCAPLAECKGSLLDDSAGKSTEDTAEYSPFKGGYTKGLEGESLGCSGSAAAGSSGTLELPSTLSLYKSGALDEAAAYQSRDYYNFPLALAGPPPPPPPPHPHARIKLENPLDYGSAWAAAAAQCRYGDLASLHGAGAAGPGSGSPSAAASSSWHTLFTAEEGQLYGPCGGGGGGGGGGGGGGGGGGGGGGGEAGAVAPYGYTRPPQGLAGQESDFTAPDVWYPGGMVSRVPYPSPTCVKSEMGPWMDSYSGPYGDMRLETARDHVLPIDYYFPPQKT
Excerpt: (§1) The inhibitory activity of JN018 was further evaluated in experiments in which the AR transactivation domain (TAD) or the c-Jun or CREB TAD was fused to the heterologous GAL4 DNA-binding domain and thereby drive reporter gene expression governed by the GAL4 response element (FIG. 1).

[4] = test system: c-Jun TAD; test: JUN-TAD fused to GAL4 DNA-binding domain reporter assay; assay type: cell-based; conditions: Table 3 grade HIGH/MED/LOW, grades not defined
Excerpt: as §1

[5] = test system: CREB TAD; test: CREB-TAD fused to GAL4 DNA-binding domain reporter assay; assay type: cell-based; conditions: Table 3 grade HIGH/MED/LOW, grades not defined
Excerpt: as §1

[6] = test system: AR positive PCa cells (LNCaP, LNCaP-AR, CWR22, 22Rv1, LAPC4); test: MTT / CellTiter GLO cell viability, AR positive prostate cancer cells; conditions: for MTT AR-Pos: Table 3 grade HIGH/MED/LOW, grades not defined; for growth inhibitory / suppressive effects as compared to JN018 / growth of AR expressing prostate cancer cells: result in words
Description: as §3, §4
Results were normalized to that of vehicle control. Experiments were performed in quadruplicate; results are means+/−s.d.
Next, the effects of the compounds on growth of prostate cancer cell lines in vitro were evaluated.

[7] = test system: AR transcriptional activity (MMTV reporter); test: MMTV reporter assay; assay type: cell-based; conditions: for MMTV: Table 3 grade HIGH/MED/LOW, grades not defined; for reporter activity driven by the MMTV promoter: result in words
[8] = test system: androgen response element (ARE); test: ARE reporter assay (tandem copies of the androgen response element); assay type: cell-based; conditions: for ARE: Table 3 grade HIGH/MED/LOW, grades not defined; for reporter activity driven by the ARE: result in words
Description: FIG. 11A. Effects of JN series compounds in reporter assays for androgen response element. Experiments were performed in triplicate and results are means+/−s.d.

[9] = test system: LNCaP-AR castration resistant cell line; test: LNCaP-AR castration resistant xenograft in castrated nude mice; assay type: in vivo; conditions: for tumor growth of LNCaP-AR model in castrated nude mice: oral gavage once per day, five days per week (Mon-Fri); for signs of toxicity in mice: xenograft study, oral gavage Mon-Fri
Description: FIG. 12A. In vivo effects of JN series compounds.
FIG. 12B. In vivo effects of JN series compounds.
Selected compounds were tested in a mouse xenograft model. In this model, the LNCaP-AR castration resistant cell line was grown subcutaneously in the flanks of castrated nude mice. When tumors reached 150-200 mm^3, mice were administered selected JN series compounds, vehicle or positive control by oral gavage once per day for five days per week (Mon-Fri). […].

[10] = test system: A549; test: Growth of lung cancer cells; assay type: cell-based; conditions: not shown
Excerpt: Further modifications of R1 yielded compounds with a spectrum of growth suppressive effects.

[11] = test system: non-AR-dependent reporter systems; test: Non-AR-dependent reporter systems; assay type: cell-based; conditions: result in words
Excerpt: (§2) Additional compounds have been generated with sequential numbering through JN136. In vitro biologic activity and biochemical activity/selectivity for AR inhibition have been tested for JN104-133.

[12] = test system: AR transcriptional activity (PSA promoter/enhancer reporter); test: PSA promoter/enhancer reporter assay; assay type: cell-based; conditions: result in words
Excerpt: as §2

[13] = test system: AP1 mediated reporter activity; test: AP1 reporter assay; assay type: cell-based; conditions: Table 3 grade HIGH/MED/LOW, grades not defined

Compound	MTT AR-Neg [1]	GRE [2]	AR-TAD [3]	JUN-TAD [4]	CREB-TAD [5]	MTT AR-Pos [6]	MMTV [7]	ARE [8]	further results
C=CC(O)/C(=C\c1ccc(Cl)cc1)c1ccccc1 (stereo not drawn) [JN003, (Z)-1-(4-Chlorophenyl)-2-phenylpenta-1,4-dien-3-ol]	LOW	LOW	HIGH	LOW	LOW	LOW	HIGH	–	–
CN(C/C(=C\c1ccc(Cl)cc1)C(=O)c1ccccc1)Cc1ccccc1 [JN017, (E)-2-((Benzyl(methyl)amino)methyl)-3-(4-chlorophenyl)-1-phenylprop-2-en-1-one]	MED	–	HIGH	LOW	LOW	HIGH	LOW	LOW	–
CN(C/C(=C\c1ccc(Br)cc1)C(=O)c1ccccc1)Cc1ccccc1 [JN022]	HIGH	–	HIGH	HIGH	LOW	HIGH	HIGH	LOW	–
CN(C)C/C(=C\c1ccc(Cl)cc1)C(=O)c1ccccc1 [JN024]	MED	–	HIGH	HIGH	HIGH	HIGH	HIGH	HIGH	–
Cc1ccc(/C=C(\CN(C)Cc2ccccc2)C(=O)c2ccccc2)cc1 [JN043]	MED	HIGH	HIGH	LOW	MED	HIGH	HIGH	HIGH	–
CN(C/C(=C\c1ccc(C(F)(F)F)cc1)C(=O)c1ccccc1)Cc1ccccc1 [JN044]	MED	HIGH	HIGH	LOW	MED	HIGH	MED	HIGH	–
CN(C/C(=C\c1cccc(Cl)c1)C(=O)c1ccccc1)Cc1ccccc1 [JN048]	LOW	LOW	HIGH	LOW	LOW	HIGH	HIGH	HIGH	–
CN(C/C(=C\c1ccc(Cl)cc1)C(=O)c1ccc(Cl)cc1)Cc1ccccc1 [JN050]	MED	HIGH	HIGH	LOW	MED	HIGH	HIGH	HIGH	–
O=C(/C=C/c1ccc(F)cc1)C(=Cc1ccc(F)cc1)c1ccccc1 [JN051]	HIGH	HIGH	–	–	–	HIGH	HIGH	HIGH	–
C=C(CN(C)Cc1ccccc1)C(=O)/C(=C/c1cccc(Cl)c1)c1ccccc1.Cl [JN060]	HIGH	HIGH	–	–	–	HIGH	HIGH	HIGH	–
C=C(CN(C)Cc1ccccc1)C(=O)/C(=C/c1ccc(Cl)cc1)c1ccc(F)cc1.Cl [JN090]	–	–	–	–	–	–	–	–	tumor growth of LNCaP-AR model in castrated nude mice [9]: inhibit the growth; also recorded: demonstrated anti-tumor effects; signs of toxicity in mice [9]: limited or no outward signs of toxicity
C=C(C)C(=O)NC(=O)/C(=C/c1ccc(Cl)cc1)c1ccccc1 [JN102, (E)-3-(4-Chlorophenyl)-N-methacryloyl-2-phenylacrylamide]	–	–	–	–	–	–	–	–	reporter activity driven by the ARE [8]: inhibited reporter activity; growth of AR null prostate cancer cells [1]: did not influence growth; growth of lung cancer cells (A549) [10]: did not influence growth; growth inhibitory / suppressive effects as compared to JN018 [6]: improved growth suppressive effects; growth of AR expressing prostate cancer cells [6]: suppressed growth
C=C(C)C(=O)NC(=O)/C(=C/c1ccc(Cl)cc1)c1ccc(F)cc1 [JN103]	–	–	–	–	–	–	–	–	reporter activity driven by the ARE [8]: inhibited reporter activity; growth of AR null prostate cancer cells [1]: did not influence growth; tumor growth of LNCaP-AR model in castrated nude mice [9]: inhibit the growth; also recorded: demonstrated anti-tumor effects; signs of toxicity in mice [9]: limited or no outward signs of toxicity; growth of lung cancer cells (A549) [10]: did not influence growth; growth inhibitory / suppressive effects as compared to JN018 [6]: improved growth suppressive effects; growth of AR expressing prostate cancer cells [6]: suppressed growth
C=C(C)C(=O)NC(=O)/C(=C/c1ccc(Cl)cc1)c1ccc(F)cc1F [JN118]	–	–	–	–	–	–	–	–	reporter activity driven by the ARE [8]: excellent inhibitory effects; effects on non-AR-dependent reporter systems [11]: minimal effects; off target effects on AR-null prostate cancer cell lines compared to JN018 [1]: reduced off target effects; AR transcriptional activity in PSA promoter/enhancer reporter [12]: excellent inhibitory effects; growth inhibitory / suppressive effects as compared to JN018 [6]: improved in vitro growth inhibitory effects; reporter activity driven by the MMTV promoter [7]: excellent inhibitory effects
C=C(C)C(=O)NC(=O)/C(=C/c1ccc(C(F)(F)F)cc1)c1ccccc1 [JN121]	–	–	–	–	–	–	–	–	reporter activity driven by the ARE [8]: excellent inhibitory effects; effects on non-AR-dependent reporter systems [11]: minimal effects; off target effects on AR-null prostate cancer cell lines compared to JN018 [1]: reduced off target effects; AR transcriptional activity in PSA promoter/enhancer reporter [12]: excellent inhibitory effects; tumor growth of LNCaP-AR model in castrated nude mice [9]: inhibit the growth; also recorded: demonstrated anti-tumor effects; signs of toxicity in mice [9]: limited or no outward signs of toxicity; growth inhibitory / suppressive effects as compared to JN018 [6]: improved in vitro growth inhibitory effects; reporter activity driven by the MMTV promoter [7]: excellent inhibitory effects
CNC(=O)c1ccc(N2C(=S)N(c3ccc(C#N)c(C(F)(F)F)c3)C(=O)C2(C)C)cc1F [MDV 3100, enzalutamide, reference compound]	LOW	LOW	–	LOW	LOW	HIGH	–	HIGH	AP1 [13]: HIGH
